{"source": "patent US20140005119A1", "about": "“COMPOSITIONS AND METHODS FOR INHIBITING THE ACTIVITY OF P110a MUTANT PROTEINS” (Case Western Reserve University, priority 2012, published 2014)", "key": {"[1]": {"target": "T1, interaction between IRS1 and DABD p110α E545K (Homo sapiens, UniProt P35568)", "T1 construct": "expressed in transfected cells", "T1 sequence (P35568 1-1242)": "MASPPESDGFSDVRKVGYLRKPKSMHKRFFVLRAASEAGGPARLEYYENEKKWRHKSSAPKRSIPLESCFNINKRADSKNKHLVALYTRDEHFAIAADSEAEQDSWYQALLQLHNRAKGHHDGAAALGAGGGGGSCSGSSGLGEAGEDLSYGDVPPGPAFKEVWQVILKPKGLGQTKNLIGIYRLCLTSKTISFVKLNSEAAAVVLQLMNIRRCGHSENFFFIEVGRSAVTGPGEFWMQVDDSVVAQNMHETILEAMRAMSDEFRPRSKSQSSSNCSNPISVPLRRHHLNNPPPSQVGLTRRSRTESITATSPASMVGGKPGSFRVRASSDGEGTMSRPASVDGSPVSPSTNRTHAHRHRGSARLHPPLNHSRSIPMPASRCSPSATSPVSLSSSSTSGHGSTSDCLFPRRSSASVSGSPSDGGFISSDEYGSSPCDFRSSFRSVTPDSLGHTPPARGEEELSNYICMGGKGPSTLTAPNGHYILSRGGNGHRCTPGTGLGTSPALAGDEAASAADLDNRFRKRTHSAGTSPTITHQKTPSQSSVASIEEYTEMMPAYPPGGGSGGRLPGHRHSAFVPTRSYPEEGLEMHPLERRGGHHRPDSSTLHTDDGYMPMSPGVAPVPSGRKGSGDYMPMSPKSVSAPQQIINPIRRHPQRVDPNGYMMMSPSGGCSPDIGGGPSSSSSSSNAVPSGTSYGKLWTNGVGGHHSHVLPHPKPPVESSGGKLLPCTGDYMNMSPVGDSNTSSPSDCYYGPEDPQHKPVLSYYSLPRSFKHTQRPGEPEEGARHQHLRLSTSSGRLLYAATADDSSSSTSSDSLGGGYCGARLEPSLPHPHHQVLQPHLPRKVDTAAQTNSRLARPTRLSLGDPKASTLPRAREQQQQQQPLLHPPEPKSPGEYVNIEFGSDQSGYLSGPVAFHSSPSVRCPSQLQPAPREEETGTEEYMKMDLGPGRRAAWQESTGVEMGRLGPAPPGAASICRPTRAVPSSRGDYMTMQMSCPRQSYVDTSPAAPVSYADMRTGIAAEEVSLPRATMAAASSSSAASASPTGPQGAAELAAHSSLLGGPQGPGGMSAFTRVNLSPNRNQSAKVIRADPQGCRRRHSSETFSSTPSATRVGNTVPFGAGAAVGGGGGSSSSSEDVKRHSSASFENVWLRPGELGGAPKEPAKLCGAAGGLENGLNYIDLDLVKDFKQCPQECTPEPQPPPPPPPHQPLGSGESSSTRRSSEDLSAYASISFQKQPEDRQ", "test": "Co-IP from lysate of cells co-transfected with Myc-IRS1 and FLAG-tagged ΔABD p110α E545K, incubated with stapled peptide", "assay_type": "binding", "experimental": "FIGS. 3(A-M) illustrate: (A, B) Mapping peptides (P3, SEQ ID NO: 1; P4 SEQ ID NO: 2; P5, SEQ ID NO: 3; P6, SEQ ID NO: 4) derived from mutant p110α that inhibit interaction between IRS1 and p110α E545K. The indicated peptides were added into cell lysates made from the p110α E545K 3×FLAG KI cells. Cell lysates were immunoprecipitated with beads conjugated with anti-FLAG antibodies and then blotted with anti-IRS1 antibodies. (C) Immunoblots of cell lysates made from the p110α E545K 3×FLAG KI cells. Cell lysates were immunoprecipitated with beads conjugated with anti-FLAG antibodies and then blotted with the indicated antibodies. […] (J, K) Immunoblot and graph of purified recombinant p110α E545K mutant proteins mixed with the indicated components and quantified using an in vitro lipid kinase assay. […]\n(§1) For Co-immunoprecipitation (Co-IP), cells were harvested, washed with PBS, and then lysed in IP buffer (50 mMTris [pH 7.4], 150 mMNaCl, 5 mMEDTA [pH 8.0], 0.5% NP40, 1 mM PMSF, complete Protease Inhibitor Cocktail tablet [Roche]; supplemented with phosphatase inhibitors [1 mM Na3VO4, 20 mM NaF, 0.1 mM b-glycerophosphate, 20 mM sodium pyrophosphate] when necessary). […] Lysates were then cleared by centrifugation (14,000 rpm, 10 min) and protein concentration in supernatants was determined with a BCA protein assay kit (Pierce, Rockford, Ill.). […]"}, "p85 and IRS1": {"test_system": "p85 and IRS1", "test": "Immunoblot of treated cell lines, p85 and IRS1 levels", "assay_type": "cell-based, human", "experimental": "FIG. 4(A-F) illustrate: (A) Schematic diagram of linear and stapled WT and mutant peptides derived from p110α (SEQ ID NOs: 5, 6, 7 and 8). (B) Immunoblots of cell lysates immunoprecipitated with beads conjugated with anti-FLAG antibodies and then blotted with the indicated antibodies. Linear or stapled WT and mutant peptide were added into culture medium of the p110α E545K 3×FLAG KI cells for 16 hr. (C) Immunoblots of cell lysates immunoprecipitated with anti-p110α antibodies and then blotted with the indicated antibodies. Vaco481 CRC cells were treated with the stapled mutant peptides at the indicated concentration. (D) Immunoblots of cell lysates blotted with the indicated antibodies. The indicated cell lines were treated with the stapled mutant peptide. (E) Immunoblots of cell lysates blotted with the indicated antibodies. […]\nas §1"}, "[2]": {"test_system": "AKT and Foxo1 phosphorylation", "test": "Immunoblot of AKT signaling in peptide-treated xenograft tumors", "assay_type": "in vivo, mice", "experimental": "FIG. 6 is an immunoblot illustrating the stapled mutant peptide inhibits AKT signaling in xenograft tumors.\nFive-week-old male athymic nude mice were injected with 5 million cells subcutaneously and bilaterally. When tumor sizes reached 100-150 mm^3, 10 mice with similar sized tumors on both flanks were selected. The left flank tumors were injected with stapled WT p110α peptide, whereas the right flank tumors were injected with stapled p110α E545K mutant peptide. Each tumor was injected with 250 μg of peptide daily for 14 days. Control xenograft tumors were injected with an equal volume of water. The tumor sizes were measured every 2 days."}, "[3]": {"settings": "peptide-treated xenograft tumors"}}, "data": [{"substance": "H2N-SEITKQEK-D^549-FLW-S^553-HRHYC-COOH [stapled mutant peptide]", "values": [{"measurement": "inhibition of the interaction between IRS1 and DABD p110α E545K", "setting": "[1]", "value": "inhibited"}, {"measurement": "levels of p85 and IRS1", "setting": "p85 and IRS1", "value": "did not affect"}, {"measurement": "AKT signaling in xenograft tumors", "setting": "[2]; FIG. 6 legend", "value": "inhibits"}, {"measurement": "AKT and Foxo1 phosphorylation in xenograft tumors", "setting": "[2]; [3]", "value": "reduced"}, {"measurement": "AKT phosphorylation at T308 and S473 residues in xenograft tumors", "setting": "[2]; [3]", "value": "only decreased AKT phosphorylation at the S473 residue"}]}]}
